{"source": "ChEMBL document CHEMBL4431314", "about": "“Computer-aided drug design guided by hydrogen/deuterium exchange mass spectrometry: A powerful combination for the development of potent and selective inhibitors of Group VIA calcium-independent phospholipase A2” (Bioorg Med Chem, 2016)"}
{"target": "T1, 85/88 kDa calcium-independent phospholipase A2 (Homo sapiens) (UniProt O60733)", "T1 sequence (whole entry)": "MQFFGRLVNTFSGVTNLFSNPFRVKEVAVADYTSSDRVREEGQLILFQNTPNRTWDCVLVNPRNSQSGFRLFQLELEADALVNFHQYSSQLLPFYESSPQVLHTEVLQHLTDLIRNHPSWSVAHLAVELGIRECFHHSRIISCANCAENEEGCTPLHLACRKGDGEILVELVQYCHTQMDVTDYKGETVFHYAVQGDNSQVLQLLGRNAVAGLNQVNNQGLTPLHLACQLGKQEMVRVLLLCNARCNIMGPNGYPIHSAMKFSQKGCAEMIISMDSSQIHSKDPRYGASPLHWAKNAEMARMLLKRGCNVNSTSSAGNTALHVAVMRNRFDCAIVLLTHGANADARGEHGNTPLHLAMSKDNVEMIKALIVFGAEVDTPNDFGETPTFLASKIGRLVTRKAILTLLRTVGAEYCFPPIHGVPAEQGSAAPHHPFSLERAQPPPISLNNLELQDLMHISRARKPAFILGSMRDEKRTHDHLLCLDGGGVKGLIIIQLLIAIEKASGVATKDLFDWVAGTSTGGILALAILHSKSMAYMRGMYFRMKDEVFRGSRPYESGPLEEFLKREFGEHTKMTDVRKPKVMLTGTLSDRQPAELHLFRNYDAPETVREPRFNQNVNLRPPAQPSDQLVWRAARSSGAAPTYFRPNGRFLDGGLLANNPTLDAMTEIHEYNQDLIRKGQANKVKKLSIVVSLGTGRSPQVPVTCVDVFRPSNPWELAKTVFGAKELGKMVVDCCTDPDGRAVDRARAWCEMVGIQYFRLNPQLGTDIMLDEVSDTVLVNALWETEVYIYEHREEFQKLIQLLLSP", "assay": "Inhibition of N-terminal 6xHis-tag human group VIA calcium-independent PLA2 expressed in fall armyworm sf9 cells at 0.091 mol fraction using PAPC/arachidonyl-1-14C PAPC as substrate by mixed micelle modified Dole assay", "units": {"inhibition": "%"}}
{"smiles": "O=C(C[Se]c1ccccc1)C(F)(F)F", "inhibition": 46}
{"smiles": "CCCCCCS(=O)(=O)CC(O)C(F)(F)F", "note": "(stereo not drawn)", "inhibition": 15}
{"smiles": "O=C(CSc1ccc(F)cc1)C(F)(F)F", "inhibition": 46}
{"smiles": "CCCCCCCCS(=O)(=O)CC(O)C(F)(F)F", "note": "(stereo not drawn)", "inhibition": 24}
{"smiles": "CCCCCCCCSCC(=O)C(F)(F)F", "inhibition": 99, "pXI50": 3.7}
{"smiles": "CCCCCCCCS(=O)(=O)CC(O)(O)C(F)(F)F", "inhibition": 82}
{"smiles": "CCCCCCCCCCCCS(=O)(=O)CC(O)C(F)(F)F", "note": "(stereo not drawn)", "inhibition": 32}
{"smiles": "O=C(c1ccc(C2CCCCC2)s1)C(F)(F)F", "inhibition": 39}
{"smiles": "CCCCCCS(=O)(=O)CC(O)(O)C(F)(F)F", "inhibition": 71}
{"smiles": "O=C(CSc1ccccc1)C(F)(F)F", "inhibition": 89}
{"smiles": "O=C(CSc1ccc([N+](=O)[O-])cc1)C(F)(F)F", "inhibition": 52}
{"smiles": "CCCCCCCCCCCCS(=O)(=O)CC(O)(O)C(F)(F)F", "inhibition": 52}
{"smiles": "CCCCCCOCC(O)C(F)(F)F", "note": "(stereo not drawn)", "inhibition": 43}
{"target": "T2, Cytosolic phospholipase A2 (Homo sapiens) (UniProt P47712)", "T2 sequence (whole entry)": "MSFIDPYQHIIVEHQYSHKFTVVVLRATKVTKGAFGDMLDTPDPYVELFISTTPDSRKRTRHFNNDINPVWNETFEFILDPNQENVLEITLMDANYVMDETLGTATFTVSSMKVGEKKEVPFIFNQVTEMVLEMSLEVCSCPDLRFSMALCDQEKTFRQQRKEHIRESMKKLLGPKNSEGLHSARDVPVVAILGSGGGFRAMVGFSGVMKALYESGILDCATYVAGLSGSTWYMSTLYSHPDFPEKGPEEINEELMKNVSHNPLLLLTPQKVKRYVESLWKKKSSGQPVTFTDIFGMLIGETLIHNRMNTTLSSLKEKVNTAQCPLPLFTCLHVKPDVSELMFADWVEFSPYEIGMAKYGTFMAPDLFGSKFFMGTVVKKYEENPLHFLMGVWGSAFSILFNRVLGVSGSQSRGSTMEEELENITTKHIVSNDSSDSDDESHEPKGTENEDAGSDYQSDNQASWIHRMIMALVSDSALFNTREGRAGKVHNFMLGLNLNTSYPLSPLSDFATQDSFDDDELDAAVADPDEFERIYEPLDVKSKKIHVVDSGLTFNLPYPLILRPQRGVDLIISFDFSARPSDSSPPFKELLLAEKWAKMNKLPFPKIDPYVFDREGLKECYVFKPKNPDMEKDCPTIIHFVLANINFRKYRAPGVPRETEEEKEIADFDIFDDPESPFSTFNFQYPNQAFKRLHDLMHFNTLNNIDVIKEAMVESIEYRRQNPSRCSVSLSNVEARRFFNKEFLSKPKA", "assay": "Inhibition of C-terminal 6xHis-tagged human group IVA cytosolic PLA2 expressed in fall armyworm sf9 cells at 0.091 mol fraction using PAPC/arachidonyl-1-14C PAPC as substrate by mixed micelle modified Dole assay", "units": {"inhibition": "%"}}
{"smiles": "O=C(C[Se]c1ccccc1)C(F)(F)F", "inhibition": 18}
{"smiles": "CCCCCCS(=O)(=O)CC(O)C(F)(F)F", "note": "(stereo not drawn)", "inhibition": 5}
{"smiles": "O=C(CSc1ccc(F)cc1)C(F)(F)F", "inhibition": 24}
{"smiles": "CCCCCCCCS(=O)(=O)CC(O)C(F)(F)F", "note": "(stereo not drawn)", "inhibition": 5}
{"smiles": "CCCCCCCCSCC(=O)C(F)(F)F", "inhibition": 82}
{"smiles": "CCCCCCCCS(=O)(=O)CC(O)(O)C(F)(F)F", "inhibition": 19}
{"smiles": "CCCCCCCCCCCCS(=O)(=O)CC(O)C(F)(F)F", "note": "(stereo not drawn)", "inhibition": 2}
{"smiles": "O=C(c1ccc(C2CCCCC2)s1)C(F)(F)F", "inhibition": 60}
{"smiles": "CCCCCCS(=O)(=O)CC(O)(O)C(F)(F)F", "inhibition": 14}
{"smiles": "O=C(CSc1ccccc1)C(F)(F)F", "inhibition": 75}
{"smiles": "O=C(CSc1ccc([N+](=O)[O-])cc1)C(F)(F)F", "inhibition": 26}
{"smiles": "CCCCCCCCCCCCS(=O)(=O)CC(O)(O)C(F)(F)F", "inhibition": 34}
{"smiles": "CCCCCCOCC(O)C(F)(F)F", "note": "(stereo not drawn)", "inhibition": 58}
{"species_on_record": "Homo sapiens", "assay": "Inhibition of His-tagged human group V human secretory PLA2 expressed in Escherichia coli BL21 cells at 0.091 mol fraction using PAPC/arachidonyl-1-14C PAPC as substrate by mixed micelle modified Dole assay", "units": {"inhibition": "%"}}
{"smiles": "O=C(C[Se]c1ccccc1)C(F)(F)F", "inhibition": 44}
{"smiles": "CCCCCCS(=O)(=O)CC(O)C(F)(F)F", "note": "(stereo not drawn)", "inhibition": 16}
{"smiles": "O=C(CSc1ccc(F)cc1)C(F)(F)F", "inhibition": 14}
{"smiles": "CCCCCCCCS(=O)(=O)CC(O)C(F)(F)F", "note": "(stereo not drawn)", "inhibition": 23}
{"smiles": "CCCCCCCCSCC(=O)C(F)(F)F", "inhibition": 68}
{"smiles": "CCCCCCCCS(=O)(=O)CC(O)(O)C(F)(F)F", "inhibition": 18}
{"smiles": "CCCCCCCCCCCCS(=O)(=O)CC(O)C(F)(F)F", "note": "(stereo not drawn)", "inhibition": 80}
{"smiles": "O=C(c1ccc(C2CCCCC2)s1)C(F)(F)F", "inhibition": 66}
{"smiles": "CCCCCCS(=O)(=O)CC(O)(O)C(F)(F)F", "inhibition": 0}
{"smiles": "O=C(CSc1ccccc1)C(F)(F)F", "inhibition": 27}
{"smiles": "O=C(CSc1ccc([N+](=O)[O-])cc1)C(F)(F)F", "inhibition": 17}
{"smiles": "CCCCCCCCCCCCS(=O)(=O)CC(O)(O)C(F)(F)F", "inhibition": 44}
{"smiles": "CCCCCCOCC(O)C(F)(F)F", "note": "(stereo not drawn)", "inhibition": 35}
{"target": "T1, 85/88 kDa calcium-independent phospholipase A2 (Homo sapiens)", "assay": "Binding affinity to Group VIA calcium-independent PLA2 (unknown origin) (481 to 493 residues) assessed as change in average deuteration level preincubated for 30 mins followed by D2O addition measured after 10 to 10000 secs by DXMS analysis", "units": {"Activity": "%"}}
{"smiles": "CCCCCCCCSCC(=O)C(F)(F)F", "Activity": 16}
{"target": "T1, 85/88 kDa calcium-independent phospholipase A2 (Homo sapiens)", "assay": "Binding affinity to Group VIA calcium-independent PLA2 (unknown origin) (514 to 524 residues) assessed as change in average deuteration level preincubated for 30 mins followed by D2O addition measured after 10 to 10000 secs by DXMS analysis", "units": {"Activity": "%"}}
{"smiles": "CCCCCCCCSCC(=O)C(F)(F)F", "Activity": 13}
{"target": "T1, 85/88 kDa calcium-independent phospholipase A2 (Homo sapiens)", "assay": "Binding affinity to Group VIA calcium-independent PLA2 (unknown origin) (542 to 562 residues) assessed as change in average deuteration level preincubated for 30 mins followed by D2O addition measured after 10 to 10000 secs by DXMS analysis", "units": {"Activity": "%"}}
{"smiles": "CCCCCCCCSCC(=O)C(F)(F)F", "Activity": 18}
{"target": "T1, 85/88 kDa calcium-independent phospholipase A2 (Homo sapiens)", "assay": "Binding affinity to Group VIA calcium-independent PLA2 (unknown origin) (630 to 655 residues) assessed as change in average deuteration level preincubated for 30 mins followed by D2O addition measured after 10 to 10000 secs by DXMS analysis", "units": {"Activity": "%"}}
{"smiles": "CCCCCCCCSCC(=O)C(F)(F)F", "Activity": 12}
{"target": "T1, 85/88 kDa calcium-independent phospholipase A2 (Homo sapiens)", "assay": "Binding affinity to Group VIA calcium-independent PLA2 (unknown origin) (656 to 664 residues) assessed as change in average deuteration level preincubated for 30 mins followed by D2O addition measured after 10 to 10000 secs by DXMS analysis", "units": {"Activity": "%"}}
{"smiles": "CCCCCCCCSCC(=O)C(F)(F)F", "Activity": 12}
{"target": "T1, 85/88 kDa calcium-independent phospholipase A2 (Homo sapiens)", "assay": "Binding affinity to Group VIA calcium-independent PLA2 (unknown origin) (718 to 730 residues) assessed as change in average deuteration level preincubated for 30 mins followed by D2O addition measured after 10 to 10000 secs by DXMS analysis", "units": {"Activity": "%"}}
{"smiles": "CCCCCCCCSCC(=O)C(F)(F)F", "Activity": 13}
{"target": "T1, 85/88 kDa calcium-independent phospholipase A2 (Homo sapiens)", "assay": "Binding affinity to Group VIA calcium-independent PLA2 (unknown origin) (770 to 778 residues) assessed as change in average deuteration level preincubated for 30 mins followed by D2O addition measured after 10 to 10000 secs by DXMS analysis", "units": {"Activity": "%"}}
{"smiles": "CCCCCCCCSCC(=O)C(F)(F)F", "Activity": 20}
{"target": "T1, 85/88 kDa calcium-independent phospholipase A2 (Homo sapiens)", "assay": "Competitive-reversible inhibition of N-terminal 6xHis-tag human group VIA calcium-independent PLA2 expressed in fall armyworm sf9 cells using PAPC/arachidonyl-1-14C PAPC as substrate by mixed micelle modified Dole assay"}
{"smiles": "CCCCCCCCSCC(=O)C(F)(F)F", "XI50 (mole fraction)": 0.0002}
